Measured values reported in US8148398B2, “Intermediate duration neuromuscular blocking agents and antagonists thereof” (Cornell Research Foundation, Inc., priority 2006, dated 2012).

Tests used:
Assay type in all cases: in vivo
Rhesus monkeys [1] = assay: Reversal of neuromuscular blockade by cysteine plus glutathione in rhesus monkeys (Example 3); settings: for time for reversal of the neuromuscular blockade (FIG. 5, as stated in Example 3): combination of cysteine and glutathione
Protocol: (§1) Rhesus monkeys were anesthetized with ketamine (7.5 mg/Kg) given intramuscularly or intravenously. Anesthesia was maintained with a mixture of isoflurane (1.5%), nitrous oxide (60%) and oxygen (40%). The common peroneal nerve was stimulated supramaximally with square wave pulses of 0.2 m sec duration at a rate of 0.15 Hz. Twitch contractions were recorded via the tendon of the extensor digitorum muscle.
(§2) In all animals, the trachea was intubated and ventilation was controlled at 12-15 ml/kg, 18-24 breaths per minute. A peripheral vein and artery were cannulated for drug administration and for recording of arterial pressure, respectively. In preliminary studies a neuromuscular blocking agent having one of the following structures was administered intravenously.
In studies designed to examine the reversal of the neuromuscular blockade caused by these agents, cysteine and/or glutathione was administered to test animals at selected dosages.
Rhesus monkeys were anesthetized and treated with a neuromuscular blocking agent as described in Example 1.

Rhesus monkeys [2] = assay: Cardiovascular effects (mean arterial pressure, heart rate) of blocking agents in rhesus monkeys; settings: for change in heart rate / change in mean arterial pressure: even high dosages, FIG. 8 / FIG. 9; for physiological distress to the circulation in vivo: rhesus monkeys
Protocol: as §1, §2
Rhesus monkeys were anesthetized and treated with a neuromuscular blocking agent as described in Example 1. FIGS. 8 and 9 provide mean values for the cardiovascular effects of administration of the AV002 and AV001 neuromuscular blocking agents, respectively as a function of dosage.

Rhesus monkeys [3] = assay: Potency and duration of neuromuscular blockade, twitch response in anesthetized rhesus monkeys; settings: for spontaneous recovery from neuromuscular blockade / duration of the neuromuscular blockade (FIG. 7): no antagonist; for effective dosage for 50% neuromuscular blockade (dose-response curve) / effective dosage for 95% neuromuscular blockade (dose-response curve): dose-response curve FIG. 3 / FIG. 10; for Potency (ED95 mg/kg) / Duration at 4X ED95 / Duration: rhesus monkeys; for Potency (ED95 mg/kg): intravenous, dose achieving 95% neuromuscular blockade; for Duration at 4X ED95: 4xED95 dosage; for Duration: from injection to 95% twitch recovery
Protocol: as §1, §2

neuromuscular blockade = assay: Reversibility of neuromuscular blockade by cysteine-like antagonists (general statements); settings: general statement, no method given
[4] = tested on: adult male rhesus monkeys; assay: Reversal of AV002 0.15 mg/kg block by cysteine/glutathione or neostigmine/atropine (Example 5); settings: AV002 0.15 mg/kg (3XED95), spontaneous recovery
Protocol: Anesthesia was induced in adult male rhesus monkeys using 7.5 mg/kg ketamine. Tracheae were intubated using topical anesthetic. Anesthesia was maintained with isoflurane 1-2% and N2O/O2 (60%/40%). ECG, temperature, O2 saturation, and blood pressure were monitored and maintained within normal limits. Mechanomyogram (MMG) recordings were made of twitch responses from the extensor digitorum at 0.15 Hz. A control dose of AV002 (0.15 mg/kg; about 3 times the ED95) was given and animals were allowed to recover spontaneously. Another dose of 0.15 mg/kg of AV002 was given approximately 30 minutes after return of train of four (TOF) to greater than 100%. Reversal of the second dose of AV002 was attempted in four separate groups of animals with either:
1) cysteine 30 mg/kg and glutathione 30 mg/kg at 1 minute after injection of AV002,
2) cysteine 30 mg/kg and glutathione 30 mg/kg at the first sign of recovery of twitch,
3) neostigmine 0.05 mg/kg and atropine 0.03 mg/kg at 1 minute after injection of AV002, or
4) neostigmine 0.05 mg/kg and atropine 0.03 mg/kg at the first sign of recovery of twitch.
Comparative recovery intervals and total duration were analyzed using the student t-test.

[5] = 0.1 mg/kg blocking agent, FIG. 1 / FIG. 4

| Structure (SMILES) | change in heart rate (Rhesus monkeys [2]) | change in mean arterial pressure (Rhesus monkeys [2]) | physiological distress to the circulation in vivo (Rhesus monkeys [2]) | spontaneous recovery from neuromuscular blockade (Rhesus monkeys [3]; [5]) | effective dosage for 50% neuromuscular blockade (dose-response curve) (Rhesus monkeys [3]) | effective dosage for 95% neuromuscular blockade (dose-response curve) (Rhesus monkeys [3]) | Potency (ED95 mg/kg) (Rhesus monkeys [3]) | Duration at 4X ED95 (Rhesus monkeys [3]) | Duration (Rhesus monkeys [3]) | reversal of the blockade by cysteine-like molecules (cysteine, glutathione) (neuromuscular blockade) | other results |
| --- | --- | --- | --- | --- | --- | --- | --- | --- | --- | --- | --- |
| COc1cc2c(cc1OC)[C@@H](Cc1cc(OC)c(OC)c(OC)c1)[N@+](C)(CCCOC(=O)/C=C/C(=O)OCCC[N@+]1(C)CCc3cc(OC)c(OC)cc3[C@H]1Cc1cc(OC)c(OC)c(OC)c1)CC2 [AV001] | little or no change | little or no change | no signs of causing physiological distress to the circulation | about 2800 seconds | 0.027 mg/kg | 0.040 mg/kg | 0.04 mg/kg | 50 to 60 min | 30 to 40 min | – | time to reversal of neuromuscular blockade counted from blocking agent administration (Rhesus monkeys [1]; 0.1 mg/kg, 20 mg/kg cysteine + 10 mg/kg glutathione after two minutes): about 475 seconds; recovery from neuromuscular blockade with cysteine plus glutathione, overdose (Rhesus monkeys [1]; 3.0 mg/kg blocking agent, seconds value restated in minutes): about 8.5 min. |
| COc1ccc(C[C@@H]2c3cc(OC)c(OC)cc3CC[N@+]2(C)CCC(=O)OCCCCCOC(=O)CC[N@@+]2(C)CCc3cc(OC)c(OC)cc3[C@H]2Cc2ccc(OC)c(OC)c2)cc1OC [cisatracurium] | – | – | – | – | – | – | – | – | – | no reversal effect whatsoever | – |
| COc1cc2c(cc1OC)[C@@H](Cc1cc(OC)c(OC)c(OC)c1)[N+](C)(CCCOC(=O)CC/C=C/CCC(=O)OCCC[N+]1(C)CCc3cc(OC)c(OC)cc3[C@H]1Cc1cc(OC)c(OC)c(OC)c1)CC2 (stereo partly drawn) [mivacurium] | – | – | – | – | – | – | – | – | – | no reversal effect whatsoever | – |
| COc1cc(CC2c3c(cc(OC)c(OC)c3OC)CC[N+]2(C)CCCOC(=O)CCC(=O)OCCC[N+]2(C)CCc3cc(OC)c(OC)c(OC)c3C2Cc2cc(OC)c(OC)c(OC)c2)cc(OC)c1OC (stereo not drawn) [doxacurium] | – | – | – | – | – | – | – | – | – | no reversal effect whatsoever | – |
| COc1ccc(C[C@H]2c3cc(OC)c(OC)cc3CC[N@@+]2(C)CCCOC(=O)/C=C/C(=O)OCCC[N@+]2(C)CCc3cc(OC)c(OC)cc3[C@@H]2Cc2ccc(OC)c(OC)c2)cc1OC [AV003] | – | – | – | – | – | – | 0.20 mg/kg | 45 to 60 min | 25 to 40 min | – | – |
| COc1ccc(C[C@@H]2c3cc(OC)c(OC)cc3CC[N@@+]2(C)CCCOC(=O)/C=C/C(=O)OCCC[N@+]2(C)CCc3cc(OC)c(OC)cc3[C@H]2Cc2ccc(OC)c(OC)c2)cc1OC [AV002] | little or no change | little or no change | no signs of causing physiological distress to the circulation | about 1600 seconds | 0.031 mg/kg | 0.045 mg/kg | 0.04 mg/kg | 30 to 35 min | 20 to 25 min | – | Recovery Interval (5-95%) (minutes ± SE) [4]: 13.78 ± 1.27 min; Total Duration (inj − 95%) (minutes ± SE) [4]: 30.45 ± 2.24 min; time for reversal of the neuromuscular blockade (FIG. 5, as stated in Example 3) (Rhesus monkeys [1]; 0.1 mg/kg): about 320 seconds; recovery from neuromuscular blockade with cysteine plus glutathione (Rhesus monkeys [1]; 0.2 mg/kg blocking agent, antagonists at 2 minutes, seconds value restated in minutes): about 7.5 min.; time for reversal of the neuromuscular blockade (FIG. 5, as stated in Example 3) (Rhesus monkeys [1]; 0.2 mg/kg): about 670 seconds; duration of the neuromuscular blockade (FIG. 7) (Rhesus monkeys [3]; 0.1 mg/kg): about 1766 seconds; spontaneous recovery from neuromuscular blockade (Rhesus monkeys [3]; 0.2 mg/kg blocking agent, FIG. 6): about 1730 seconds; spontaneous recovery from neuromuscular blockade (Rhesus monkeys [3]; 0.2 mg/kg blocking agent, seconds value restated in minutes): about 28.8 min.; duration of the neuromuscular blockade (FIG. 7) (Rhesus monkeys [3]; 0.2 mg/kg): about 2150 seconds; potency of trans isomer (AV002) compared with cis isomer (AV003) (Rhesus monkeys [3]; comparison of ED95 values): five times more potent |
